# Laboratory results published in patent US10588866B2, “Stable solid lipid particle composition for improved bioavailability of lipophilic compounds for age-related diseases” (VERDURE SCIENCES, priority 2014, dated 2020).
# Assay: Single oral dose pharmacokinetics of curcumin in plasma and mesenteric lymph
# Format: in vivo, Sprague-Dawley rats
# Settings: Sprague-Dawley, rat, plasma, 75 mg/kg
# Description: Prior to treatment, the rats were anaesthetized followed by a surgical intervention to cannulate the mesenteric mesenteric lymph duct (for lymph collection) and the carotid artery (for blood collection). The cannulas were externalized and the rats were allowed to recover for 24 hours. Thereafter, either the curcumin suspension or the SLCP dosage form was administered via gavage. Blood (0.25 ml) was sampled prior to and 0.5, 1.0, 2.0, 3.0 and 5.0 hours after administration into vials coated with EDTA. Blood samples were centrifuged to obtain plasma and stored at <−30° C. until analysis. Mesenteric lymph (0.25 ml) was collected prior to and 1 and 5 hours after administration into vials coated with EDTA and stored at <−30° C. until analysis.
# Analysis of curcumin and glucuronated curcumin was performed by HPLC with UV-detection coupled to MS according to published methods. […] The Limit of Determination was set to 2.5 ng/ml biological fluid.
compound,measurement,value
"COc1cc(/C=C/C(=O)CC(=O)/C=C/c2ccc(O)c(OC)c2)ccc1O [Standard, Curcumin]",AUC(0-t),562 ng·h/mL
same,Cmax,190 ng/mL
